Each structure is given as a SMILES string.
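Further: spheroids exposed to agents for seven days before readout; percent viability relative to DMSO vehicle control taken as 100%.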

The test system of one test is 233499-124-R-J3-PDC spheroids with HUVEC/MSC, viability. Put plainly: Anticancer human tumor 233499-124-R-J3-PDC patient-derived colon adenocarcinoma cell line growth inhibition [PI3K]. Conditions: second compound 3.16 µM; first compound 0.1 µM; stronger effect = lower value. In short, it runs like this: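 Tumor cells were combined with HUVEC and MSCs into spheroids, then dosed with PI3K-inhibitor combinations over half-log ranges capped near clinical Cmax or 10 microM.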
As a reminder, the viability, T/C is the ratio of treated to control. Turning to `Cn1ncc(Cl)c1-c1cc(C(=O)NC(CN)Cc2cccc(F)c2)sc1Cl` (configuration not stated) + Cc1nc(NC(=O)N2CCCC2C(N)=O)sc1-c1ccnc(C(C)(C)C(F)(F)F)c1, the viability, T/C was 69.9%.

In the case of `Cn1nccc1Nc1nccc(-c2ccn(C(CO)c3ccc(Cl)c(F)c3)c(=O)c2)n1` (configuration not stated) + Cc1nc(NC(=O)N2CCCC2C(N)=O)sc1-c1ccnc(C(C)(C)C(F)(F)F)c1, the viability, T/C was 58.7%.

Still in this test, the particulars now being: second compound 3.16 µM; first compound 0.316 µM; stronger effect = lower value.
`C=CC(=O)N1CCN(c2nc(=O)n(-c3c(C)ccnc3C(C)C)c3nc(-c4c(O)cccc4F)c(F)cc23)C(C)C1` (configuration not stated) + Cc1nc(NC(=O)N2CCCC2C(N)=O)sc1-c1ccnc(C(C)(C)C(F)(F)F)c1: the viability, T/C is 71.8%.

In the case of `CC(Cn1ccc(-c2ccc(C#N)c(Cl)c2)n1)NC(=O)c1cc(C(C)O)[nH]n1` (configuration not stated) + Cc1nc(NC(=O)N2CCCC2C(N)=O)sc1-c1ccnc(C(C)(C)C(F)(F)F)c1, the viability, T/C was 59.7%.

As for `Cn1ncc(Cl)c1-c1cc(C(=O)NC(CN)Cc2cccc(F)c2)sc1Cl` (configuration not stated) + Cc1nc(NC(=O)N2CCCC2C(N)=O)sc1-c1ccnc(C(C)(C)C(F)(F)F)c1, the viability, T/C is 55.3%.

Turning to `Cn1nccc1Nc1nccc(-c2ccn(C(CO)c3ccc(Cl)c(F)c3)c(=O)c2)n1` (configuration not stated) + Cc1nc(NC(=O)N2CCCC2C(N)=O)sc1-c1ccnc(C(C)(C)C(F)(F)F)c1, the viability, T/C was 54.8%.

The test is the same for the next values; noted with them: second compound 3.16 µM; first compound 1 µM; stronger effect = lower value.
As for `C=CC(=O)N1CCN(c2nc(=O)n(-c3c(C)ccnc3C(C)C)c3nc(-c4c(O)cccc4F)c(F)cc23)C(C)C1` (configuration not stated) + Cc1nc(NC(=O)N2CCCC2C(N)=O)sc1-c1ccnc(C(C)(C)C(F)(F)F)c1, the viability, T/C was 34.1%.

As to `CC(Cn1ccc(-c2ccc(C#N)c(Cl)c2)n1)NC(=O)c1cc(C(C)O)[nH]n1` (configuration not stated) + Cc1nc(NC(=O)N2CCCC2C(N)=O)sc1-c1ccnc(C(C)(C)C(F)(F)F)c1, the viability, T/C is 64.6%.

As to `Cn1ncc(Cl)c1-c1cc(C(=O)NC(CN)Cc2cccc(F)c2)sc1Cl` (configuration not stated) + Cc1nc(NC(=O)N2CCCC2C(N)=O)sc1-c1ccnc(C(C)(C)C(F)(F)F)c1, the viability, T/C is 38.1%.

For the compound `Cn1nccc1Nc1nccc(-c2ccn(C(CO)c3ccc(Cl)c(F)c3)c(=O)c2)n1` (configuration not stated) + Cc1nc(NC(=O)N2CCCC2C(N)=O)sc1-c1ccnc(C(C)(C)C(F)(F)F)c1, the viability, T/C is 53.8%.

The same test, now with this note: second compound 3.16 µM; first compound 3.16 µM; stronger effect = lower value.
Take `C=CC(=O)N1CCN(c2nc(=O)n(-c3c(C)ccnc3C(C)C)c3nc(-c4c(O)cccc4F)c(F)cc23)C(C)C1` (configuration not stated) + Cc1nc(NC(=O)N2CCCC2C(N)=O)sc1-c1ccnc(C(C)(C)C(F)(F)F)c1: the viability, T/C was 60.9%.

As to `CC(Cn1ccc(-c2ccc(C#N)c(Cl)c2)n1)NC(=O)c1cc(C(C)O)[nH]n1` (configuration not stated) + Cc1nc(NC(=O)N2CCCC2C(N)=O)sc1-c1ccnc(C(C)(C)C(F)(F)F)c1, the viability, T/C was 39.6%.

Take `Cn1ncc(Cl)c1-c1cc(C(=O)NC(CN)Cc2cccc(F)c2)sc1Cl` (configuration not stated) + Cc1nc(NC(=O)N2CCCC2C(N)=O)sc1-c1ccnc(C(C)(C)C(F)(F)F)c1: the viability, T/C was 35.3%.

Take `Cn1nccc1Nc1nccc(-c2ccn(C(CO)c3ccc(Cl)c(F)c3)c(=O)c2)n1` (configuration not stated) + Cc1nc(NC(=O)N2CCCC2C(N)=O)sc1-c1ccnc(C(C)(C)C(F)(F)F)c1: the viability, T/C was 38.4%.

Still in this test, the particulars now being: second compound 3.16 µM; first compound 10 µM; stronger effect = lower value.
For `C=CC(=O)N1CCN(c2nc(=O)n(-c3c(C)ccnc3C(C)C)c3nc(-c4c(O)cccc4F)c(F)cc23)C(C)C1` (configuration not stated) + Cc1nc(NC(=O)N2CCCC2C(N)=O)sc1-c1ccnc(C(C)(C)C(F)(F)F)c1, the viability, T/C is 67.9%.

On to `CC(Cn1ccc(-c2ccc(C#N)c(Cl)c2)n1)NC(=O)c1cc(C(C)O)[nH]n1` (configuration not stated) + Cc1nc(NC(=O)N2CCCC2C(N)=O)sc1-c1ccnc(C(C)(C)C(F)(F)F)c1, for which the viability, T/C is 52.5%.

Take `Cn1ncc(Cl)c1-c1cc(C(=O)NC(CN)Cc2cccc(F)c2)sc1Cl` (configuration not stated) + Cc1nc(NC(=O)N2CCCC2C(N)=O)sc1-c1ccnc(C(C)(C)C(F)(F)F)c1: the viability, T/C is 14.4%.

Take `Cn1nccc1Nc1nccc(-c2ccn(C(CO)c3ccc(Cl)c(F)c3)c(=O)c2)n1` (configuration not stated) + Cc1nc(NC(=O)N2CCCC2C(N)=O)sc1-c1ccnc(C(C)(C)C(F)(F)F)c1: the viability, T/C was 34.8%.

Still in this test, the particulars now being: second compound 10 µM; first compound 0.0316 µM; stronger effect = lower value.
For the compound `C=CC(=O)N1CCN(c2nc(=O)n(-c3c(C)ccnc3C(C)C)c3nc(-c4c(O)cccc4F)c(F)cc23)C(C)C1` (configuration not stated) + Cc1nc(NC(=O)N2CCCC2C(N)=O)sc1-c1ccnc(C(C)(C)C(F)(F)F)c1, the viability, T/C was 24%.

As for `CC(Cn1ccc(-c2ccc(C#N)c(Cl)c2)n1)NC(=O)c1cc(C(C)O)[nH]n1` (configuration not stated) + Cc1nc(NC(=O)N2CCCC2C(N)=O)sc1-c1ccnc(C(C)(C)C(F)(F)F)c1, the viability, T/C was 30.7%.

In the case of `Cn1ncc(Cl)c1-c1cc(C(=O)NC(CN)Cc2cccc(F)c2)sc1Cl` (configuration not stated) + Cc1nc(NC(=O)N2CCCC2C(N)=O)sc1-c1ccnc(C(C)(C)C(F)(F)F)c1, the viability, T/C was 29.3%.

With `Cn1nccc1Nc1nccc(-c2ccn(C(CO)c3ccc(Cl)c(F)c3)c(=O)c2)n1` (configuration not stated) + Cc1nc(NC(=O)N2CCCC2C(N)=O)sc1-c1ccnc(C(C)(C)C(F)(F)F)c1, the viability, T/C was 33.8%.

The test is the same for the next values; noted with them: second compound 10 µM; first compound 0.1 µM; stronger effect = lower value.
Take `C=CC(=O)N1CCN(c2nc(=O)n(-c3c(C)ccnc3C(C)C)c3nc(-c4c(O)cccc4F)c(F)cc23)C(C)C1` (configuration not stated) + Cc1nc(NC(=O)N2CCCC2C(N)=O)sc1-c1ccnc(C(C)(C)C(F)(F)F)c1: the viability, T/C is 41.6%.

With `CC(Cn1ccc(-c2ccc(C#N)c(Cl)c2)n1)NC(=O)c1cc(C(C)O)[nH]n1` (configuration not stated) + Cc1nc(NC(=O)N2CCCC2C(N)=O)sc1-c1ccnc(C(C)(C)C(F)(F)F)c1, the viability, T/C is 33.9%.

In the case of `Cn1ncc(Cl)c1-c1cc(C(=O)NC(CN)Cc2cccc(F)c2)sc1Cl` (configuration not stated) + Cc1nc(NC(=O)N2CCCC2C(N)=O)sc1-c1ccnc(C(C)(C)C(F)(F)F)c1, the viability, T/C is 29.4%.

For `Cn1nccc1Nc1nccc(-c2ccn(C(CO)c3ccc(Cl)c(F)c3)c(=O)c2)n1` (configuration not stated) + Cc1nc(NC(=O)N2CCCC2C(N)=O)sc1-c1ccnc(C(C)(C)C(F)(F)F)c1, the viability, T/C was 35.6%.

Staying with this test, now noted: second compound 10 µM; first compound 0.316 µM; stronger effect = lower value.
In the case of `C=CC(=O)N1CCN(c2nc(=O)n(-c3c(C)ccnc3C(C)C)c3nc(-c4c(O)cccc4F)c(F)cc23)C(C)C1` (configuration not stated) + Cc1nc(NC(=O)N2CCCC2C(N)=O)sc1-c1ccnc(C(C)(C)C(F)(F)F)c1, the viability, T/C was 24.9%.

For the compound `CC(Cn1ccc(-c2ccc(C#N)c(Cl)c2)n1)NC(=O)c1cc(C(C)O)[nH]n1` (configuration not stated) + Cc1nc(NC(=O)N2CCCC2C(N)=O)sc1-c1ccnc(C(C)(C)C(F)(F)F)c1, the viability, T/C is 35%.

Regarding `Cn1ncc(Cl)c1-c1cc(C(=O)NC(CN)Cc2cccc(F)c2)sc1Cl` (configuration not stated) + Cc1nc(NC(=O)N2CCCC2C(N)=O)sc1-c1ccnc(C(C)(C)C(F)(F)F)c1, the viability, T/C is 23%.

Consider `Cn1nccc1Nc1nccc(-c2ccn(C(CO)c3ccc(Cl)c(F)c3)c(=O)c2)n1` (configuration not stated) + Cc1nc(NC(=O)N2CCCC2C(N)=O)sc1-c1ccnc(C(C)(C)C(F)(F)F)c1, for which the viability, T/C is 46%.

Staying with this test, now noted: second compound 10 µM; first compound 1 µM; stronger effect = lower value.
On to `C=CC(=O)N1CCN(c2nc(=O)n(-c3c(C)ccnc3C(C)C)c3nc(-c4c(O)cccc4F)c(F)cc23)C(C)C1` (configuration not stated) + Cc1nc(NC(=O)N2CCCC2C(N)=O)sc1-c1ccnc(C(C)(C)C(F)(F)F)c1, for which the viability, T/C is 41.8%.

Turning to `CC(Cn1ccc(-c2ccc(C#N)c(Cl)c2)n1)NC(=O)c1cc(C(C)O)[nH]n1` (configuration not stated) + Cc1nc(NC(=O)N2CCCC2C(N)=O)sc1-c1ccnc(C(C)(C)C(F)(F)F)c1, the viability, T/C was 42.2%.

For the compound `Cn1ncc(Cl)c1-c1cc(C(=O)NC(CN)Cc2cccc(F)c2)sc1Cl` (configuration not stated) + Cc1nc(NC(=O)N2CCCC2C(N)=O)sc1-c1ccnc(C(C)(C)C(F)(F)F)c1, the viability, T/C is 25.5%.

With `Cn1nccc1Nc1nccc(-c2ccn(C(CO)c3ccc(Cl)c(F)c3)c(=O)c2)n1` (configuration not stated) + Cc1nc(NC(=O)N2CCCC2C(N)=O)sc1-c1ccnc(C(C)(C)C(F)(F)F)c1, the viability, T/C is 22.7%.

Still in this test, the particulars now being: second compound 10 µM; first compound 3.16 µM; stronger effect = lower value.
Regarding `C=CC(=O)N1CCN(c2nc(=O)n(-c3c(C)ccnc3C(C)C)c3nc(-c4c(O)cccc4F)c(F)cc23)C(C)C1` (configuration not stated) + Cc1nc(NC(=O)N2CCCC2C(N)=O)sc1-c1ccnc(C(C)(C)C(F)(F)F)c1, the viability, T/C is 37.6%.

With `CC(Cn1ccc(-c2ccc(C#N)c(Cl)c2)n1)NC(=O)c1cc(C(C)O)[nH]n1` (configuration not stated) + Cc1nc(NC(=O)N2CCCC2C(N)=O)sc1-c1ccnc(C(C)(C)C(F)(F)F)c1, the viability, T/C was 21.9%.

Turning to `Cn1ncc(Cl)c1-c1cc(C(=O)NC(CN)Cc2cccc(F)c2)sc1Cl` (configuration not stated) + Cc1nc(NC(=O)N2CCCC2C(N)=O)sc1-c1ccnc(C(C)(C)C(F)(F)F)c1, the viability, T/C is 30%.

For the compound `Cn1nccc1Nc1nccc(-c2ccn(C(CO)c3ccc(Cl)c(F)c3)c(=O)c2)n1` (configuration not stated) + Cc1nc(NC(=O)N2CCCC2C(N)=O)sc1-c1ccnc(C(C)(C)C(F)(F)F)c1, the viability, T/C was 14.5%.

The same test, now with this note: second compound 10 µM; first compound 10 µM; stronger effect = lower value.
For the compound `C=CC(=O)N1CCN(c2nc(=O)n(-c3c(C)ccnc3C(C)C)c3nc(-c4c(O)cccc4F)c(F)cc23)C(C)C1` (configuration not stated) + Cc1nc(NC(=O)N2CCCC2C(N)=O)sc1-c1ccnc(C(C)(C)C(F)(F)F)c1, the viability, T/C was 27.2%.

Regarding `CC(Cn1ccc(-c2ccc(C#N)c(Cl)c2)n1)NC(=O)c1cc(C(C)O)[nH]n1` (configuration not stated) + Cc1nc(NC(=O)N2CCCC2C(N)=O)sc1-c1ccnc(C(C)(C)C(F)(F)F)c1, the viability, T/C is 38.9%.

Turning to `Cn1ncc(Cl)c1-c1cc(C(=O)NC(CN)Cc2cccc(F)c2)sc1Cl` (configuration not stated) + Cc1nc(NC(=O)N2CCCC2C(N)=O)sc1-c1ccnc(C(C)(C)C(F)(F)F)c1, the viability, T/C is 2.94%.

For the compound `Cn1nccc1Nc1nccc(-c2ccn(C(CO)c3ccc(Cl)c(F)c3)c(=O)c2)n1` (configuration not stated) + Cc1nc(NC(=O)N2CCCC2C(N)=O)sc1-c1ccnc(C(C)(C)C(F)(F)F)c1, the viability, T/C is 17.5%.

(Values after PubChem BioAssay AID1963984 (Molecular Pharmacology Branch, DTP, NCI, 2024).)
